Measurements as given in PMC7409020, “Tumor-Targeting Peptides: The Functional Screen of Glioblastoma Homing Peptides to the Target Protein FABP3 (MDGI)” (Cancers, 2020).
Square brackets hold non-standard residues; d marks the D form. Peptide text beside a SMILES is read from it.

Molecular target: T1, recombinant FABP3 (Homo sapiens, UniProt P05413)
T1 construct: made in house; host or cells: Escherichia coli BL21 (DE3)
Assay: Microscale thermophoresis (MST) binding to NT-650-NHS-labeled FABP3
Settings: 20 nM labeled FABP3; peptide 500 µM to 0.0153 µM, two-fold dilutions; PBS-tween 20 pH 7.4; 25 °C; 40% MST power; 1:1 fit; mean ± SD of three independent experiments
Description: For the binding affinity measurements between the recombinant FABP3 and the A-CooP, its variants, and the control peptide, we used the microscale thermophoresis. […] For these analyses, FABP3 was labeled with an NT-650-NHS fluorescence. Two-fold serially diluted peptides ranging from 500 µM to 0.0153 µM were titrated against a constant FABP3 concentration (20 nM). The binding events were generated following changes in fluorescence (ΔFnorm) against peptide concentrations. Subsequently, the equilibrium dissociation constant (KD) was calculated using a 1:1 fit model from the law of mass action. The MST binding affinities (KD values) are represented in a bar graph (Figure 4B). The smallest KD value equals the best affinity, and the highest value is the lowest affinity. […] The changes in fluorescence (ΔFnorm) were normalized to the bound fraction (Figure 4C). The data points towards 1 were considered bound fractions, while data points less than 1 represented the unbound fractions.
FABP3 was labeled with a second-generation red amine-reactive NT-650-NHS fluorescent dye using the Nanotemper labeling kit (MO-L011; Nanotemper, https://nanotempertech.com/). The protein/dye concentration ratio and volume ratio were 1:3 and 1:1, respectively, in accordance with the manufacturer’s instructions. The actual concentration and degree of labeling (DOL) were determined using the extinction coefficient Ɛ280 = 18450 M^−1 cm^−1 for FABP3 and Ɛ650 =195000 M^−1 cm^−1 for the NT650 dye. Using the correction factor of 0.04 at 280 nm, the DOL for all labeling reactions was calculated according to manufacturer’s instructions. Binding experiments were carried out in a PBS-tween 20 buffer (10 mM Na2HPO4, 140 mM NaCl, 2.7 mM KCl, 0.05% tween 20, pH 7.4). The binding assay was performed with a fixed concentration (20 nM) of the fluorescently labeled FABP3 (target) and two-fold serially diluted decreasing concentrations (500 µM to 0.0153 µM) of the unlabeled A-CooP variants (ligand). The reaction mixture of 16 serial diluents of A-CooP or its analogues and FABP3 were filled into the capillary tubes (Nanotemper, MO-K022) and loaded in the Monolith NT 115 instrument accordingly. All experiments were carried out at 25 °C, 40% MST power (medium), and 60% LED power. Binding assay and measurements were performed in triplicates for each experimental setup.

T1 sequence (P05413 whole entry): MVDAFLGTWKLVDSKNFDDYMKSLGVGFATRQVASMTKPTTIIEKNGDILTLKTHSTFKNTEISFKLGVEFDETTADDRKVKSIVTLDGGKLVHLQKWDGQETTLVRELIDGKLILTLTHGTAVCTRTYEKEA

| Compound | Kd |
| --- | --- |
| CC(C)C[C@H](NC(=O)CNC(=O)[C@H](CO)NC(=O)[C@H](CC(C)C)NC(=O)CNC(=O)[C@H](CS)NC(=O)[C@H](C)N)C(=O)NCC(=O)N[C@H](C(=O)N[C@@H](C)C(N)=O)C(C)C [A-CooP] (H-ACGLSGLGVA-NH2) | 2180 ± 1150 nM |
| CC(C)C[C@@H](NC(=O)CNC(=O)[C@H](NC(=O)[C@@H](C)N)C(C)C)C(=O)NCC(=O)N[C@H](CO)C(=O)N[C@H](CC(C)C)C(=O)NCC(=O)N[C@H](CS)C(=O)N[C@H](C)C(N)=O [RI-A-CooP] (H-[dA][dV]G[dL]G[dS][dL]G[dC][dA]-NH2) | 24000 ± 13000 nM |
| CC(C)C[C@H](NC(=O)CNC(=O)[C@H](CO)NC(=O)[C@H](CC(C)C)NC(=O)CNC(=O)[C@H](CS)NC(=O)[C@H](C)NC(=O)[C@@H](N)CCCCN)C(=O)NCC(=O)N[C@H](C(=O)N[C@@H](C)C(N)=O)C(C)C [KA-CooP] (H-KACGLSGLGVA-NH2) | 630 ± 130 nM |
| CC(C)C[C@H](NC(=O)CNC(=O)[C@H](CO)NC(=O)[C@H](CC(C)C)NC(=O)CNC(=O)[C@H](CS)NC(=O)[C@H](C)N)C(=O)N[C@@H](C)C(=O)N[C@H](C(=O)N[C@@H](C)C(N)=O)C(C)C [A-[Ala^7]CooP] (H-ACGLSGLAVA-NH2) | 133000 ± 75000 nM |

The next compounds have a lower Kd than those just listed; values first:

| Kd | Compound |
| --- | --- |
| 250 ± 140 nM | CC(C)C[C@H](NC(=O)CNC(=O)[C@H](CO)NC(=O)[C@H](C)NC(=O)CNC(=O)[C@H](CS)NC(=O)[C@H](C)N)C(=O)NCC(=O)N[C@H](C(=O)N[C@@H](C)C(N)=O)C(C)C [A-[Ala^3]CooP] (H-ACGASGLGVA-NH2) |
| 190 ± 30 nM | CC(C)C[C@H](NC(=O)CNC(=O)[C@H](CS)NC(=O)[C@H](C)N)C(=O)N[C@@H](CO)C(=O)NCC(=O)N[C@@H](C)C(=O)NCC(=O)N[C@H](C(=O)N[C@@H](C)C(N)=O)C(C)C [A-[Ala^6]CooP] (H-ACGLSGAGVA-NH2) |
| 120 ± 50 nM | CC(C)C[C@H](NC(=O)CNC(=O)[C@H](CO)NC(=O)[C@H](CC(C)C)NC(=O)CNC(=O)[C@H](CS)NC(=O)[C@H](C)N)C(=O)NCC(=O)N[C@@H](C)C(=O)N[C@@H](C)C(N)=O [A-[Ala^8]CooP] (H-ACGLSGLGAA-NH2) |
| 90 ± 70 nM | CC(C)C[C@H](NC(=O)CNC(=O)[C@H](CO)NC(=O)[C@H](CC(C)C)NC(=O)[C@H](C)NC(=O)[C@H](CS)NC(=O)[C@H](C)N)C(=O)NCC(=O)N[C@H](C(=O)N[C@@H](C)C(N)=O)C(C)C [A-[Ala^2]CooP] (H-ACALSGLGVA-NH2) |
| 70 ± 10 nM | CC(C)C[C@H](NC(=O)CNC(=O)[C@H](CO)NC(=O)[C@H](CC(C)C)NC(=O)CNC(=O)[C@H](CS)NC(=O)[C@H](C)N)C(=O)NCC(=O)N[C@H](C(=O)N[C@@H](C)C(=O)N[C@@H](CCCCN)C(N)=O)C(C)C [A-CooP-K] (H-ACGLSGLGVAK-NH2) |
